Assay results from patent US20240239794A1, “PKC-Theta Modulators” (Exscientia AI Limited, priority 2021, published 2024).
Like-named read-outs stand apart in the source and are kept apart here.

Experiments:
[1] = system: IL-2 secretion by human effector memory T cells (TEM); test: Effector memory T cells IL-2 release assay; type: cell-based; conditions: T-cell, human CD4+ TEM cells, CD3/CD28 bead stimulation, 24 h
How it was run: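 IC50 values come from a 4-parameter fit of HTRF-measured IL-2 against 10 semi-log doses, relative to maximal IL-2 in each experiment. Donor-derived CD4+ TEM cells were bead-stimulated (anti-CD3/CD28) with compound for 24 h at 37° C; cytotoxicity was excluded by viability dye staining.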

[2] = molecular target: Recombinant human PKC-theta (His-tagged 362-706) (Homo sapiens (Human), UniProt Q04759); test: PKC-theta inhibition assay (HTRF KinEASE kit); type: biochemical; conditions: ATP 6.5 μM
Chain of Recombinant human PKC-theta (His-tagged 362-706) (Q04759 362-706): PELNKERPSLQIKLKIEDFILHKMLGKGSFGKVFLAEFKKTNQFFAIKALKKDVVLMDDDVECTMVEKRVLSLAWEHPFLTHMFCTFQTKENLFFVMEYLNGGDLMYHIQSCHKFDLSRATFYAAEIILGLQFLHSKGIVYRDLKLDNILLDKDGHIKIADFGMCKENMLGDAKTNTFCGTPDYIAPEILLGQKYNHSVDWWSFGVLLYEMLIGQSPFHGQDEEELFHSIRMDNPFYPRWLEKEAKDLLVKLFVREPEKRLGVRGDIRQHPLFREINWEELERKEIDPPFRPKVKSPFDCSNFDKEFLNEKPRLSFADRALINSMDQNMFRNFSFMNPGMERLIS
How it was run: (§1)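 Ten semi-log compound doses were fitted by 4-parameter logistic to HTRF acceptor/donor ratios for IC50. Reactions at 25° C used 6.5 μM ATP and 525 nM STK substrate for 30 min (PKC-theta) or 5.7 μM ATP and 243 nM substrate for 20 min (PKC-delta), after 30 min on-ice enzyme–compound preincubation at 10 ng/ml enzyme.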

[3] = molecular target: Recombinant human PKC-delta (His-tagged 345-676) (Homo sapiens (Human), UniProt Q05655); test: PKC-delta inhibition assay (HTRF KinEASE kit), PKC-theta/PKC-delta selectivity; type: biochemical; conditions: ratio; for PKC-theta/PKC-delta selectivity: PKC-theta over PKC-delta, HTRF assays; for PKC-theta/PKC-delta selectivity (binned): binned A to G
Chain of Recombinant human PKC-delta (His-tagged 345-676) (Q05655 345-676): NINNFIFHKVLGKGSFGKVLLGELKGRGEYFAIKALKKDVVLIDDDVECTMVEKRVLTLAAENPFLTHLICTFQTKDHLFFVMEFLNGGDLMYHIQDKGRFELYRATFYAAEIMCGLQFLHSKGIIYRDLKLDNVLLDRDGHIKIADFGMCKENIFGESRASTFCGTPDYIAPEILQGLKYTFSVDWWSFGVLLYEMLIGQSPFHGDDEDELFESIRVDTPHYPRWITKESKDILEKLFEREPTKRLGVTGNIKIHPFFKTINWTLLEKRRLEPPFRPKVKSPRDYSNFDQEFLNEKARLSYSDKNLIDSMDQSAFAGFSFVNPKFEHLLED
How it was run: as §1

[4] = binned A to G, read-out: PKC-theta IL2 pIC50 (binned) (converted)
[5] = read-out: PKC-theta IL2 pIC50 (converted)
[6] = binned A to H, read-out: PKC-theta HTRF pIC50 (binned) (converted)
[7] = read-out: PKC-theta HTRF pIC50 (converted)

| Structure (SMILES) | IC50 [1, 4] [nM] | IC50 [1, 5] [nM] | PKC-theta HTRF pIC50 [2] | IC50 [2, 6] [nM] | PKC-theta/PKC-delta selectivity [3] | PKC-theta/PKC-delta selectivity (binned) [3] | IC50 [2, 7] [nM] |
| --- | --- | --- | --- | --- | --- | --- | --- |
| COC1(C)C(=O)Nc2nccc(-c3nn(CC4(F)CCCNC4)c4ccccc34)c21 (stereo not drawn) [Example 67] | 316 to 1000 | 398 | 7.5 | 31.6 to 100 | 9 | E (E means a ratio of between 5 and 10) | – |
| CC1(O)C(=O)Nc2nccc(-c3nn([C@@H]4CC[C@@H](N)[C@H](F)C4)c4ccccc34)c21 (stereo partly drawn) [Example 39] | 3.16 to 10 | 10 | 9.7 | ≤ 1 | 10 | E (E means a ratio of between 5 and 10) | – |
| CC1(C)C(=O)Nc2nccc(-c3nn(CC4(F)CCNCC4)c4ccccc34)c21 [Example 38] | 10 to 31.6 | 20 | 8.9 | 1 to 3.16 | 16 | D (D means a ratio of between 10 and 20) | – |
| CC[C@]1(C)C(=O)Nc2nccc(-c3nn([C@H]4CCNC[C@H]4F)c4ccc(F)cc34)c21 (single isomer, unassigned) [Example 100] | 31.6 to 100 | 100 | – | 3.16 to 10 | 29 | C (C means a ratio of between 20 and 30) | 7.94 |
| CC1(C)C(=O)Nc2nccc(-c3nn([C@@H]4CCNC[C@@H]4F)c4ccccc34)c21 [Example 37] | 10 to 31.6 | 25.1 | 8.6 | 1 to 3.16 | 19 | D (D means a ratio of between 10 and 20) | – |
| CC1(C)C(=O)Nc2nccc(-c3cn(C4CCNC4)c4ccccc34)c21 (stereo not drawn) [Example 10] | 316 to 1000 | 631 | 7.4 | 31.6 to 100 | 12 | D (D means a ratio of between 10 and 20) | – |
| CC1(C)C(=O)Nc2nccc(-c3nn(C4(CC#N)COC4)c4ccccc34)c21 [Example 45] | > 1000 | 1000 | 7.4 | 31.6 to 100 | 15 | D (D means a ratio of between 10 and 20) | – |
| CC1(C)C(=O)Nc2nccc(-c3nn([C@H]4CCCNC4)c4ccccc34)c21 [Example 20] | 100 to 316 | 200 | 7.8 | 10 to 31.6 | 13 | D (D means a ratio of between 10 and 20) | – |
| CC1(O)C(=O)Nc2nccc(-c3cn(C4(CC#N)CCC4)c4ccccc34)c21 (stereo not drawn) [Example 24] | 31.6 to 100 | 63.1 | 8.4 | 3.16 to 10 | 9 | E (E means a ratio of between 5 and 10) | – |
| CC1(C)C(=O)Nc2nccc(-c3nn(C4(CF)CCNC4)c4ccccc34)c21 (stereo not drawn) [Example 77] | 10 to 31.6 | 12.6 | 9.0 | ≤ 1 | 11 | D (D means a ratio of between 10 and 20) | – |
| CC1(C)C(=O)Nc2nccc(-c3nn([C@@H]4CCCNC4)c4ccccc34)c21 [Example 19] | 31.6 to 100 | 50.1 | 8.4 | 3.16 to 10 | 9 | E (E means a ratio of between 5 and 10) | – |
| C[C@@]1(O)C(=O)Nc2nccc(-c3nn(C4(CC#N)CCC4)c4ccccc34)c21 (single isomer, unassigned) [Example 40] | 10 to 31.6 | 15.8 | – | ≤ 1 | 17 | D (D means a ratio of between 10 and 20) | 0.2 |
| CNC1(C)C(=O)Nc2nccc(-c3nn(C4(CC#N)CCC4)c4ccccc34)c21 (stereo not drawn) [Example 62] | 1 to 3.16 | 1.58 | 9.5 | ≤ 1 | 3 | F (F means a ratio of between 1 and 5) | – |
| CC1(O)C(=O)Nc2nccc(-c3nn([C@H]4CCNC[C@@H]4F)c4ccccc34)c21 (stereo partly drawn) [Example 35] | 31.6 to 100 | 100 | 8.5 | 3.16 to 10 | 11 | D (D means a ratio of between 10 and 20) | – |
| CC1C(=O)Nc2nccc(-c3ccn(C4CCNCC4)c3)c21 (stereo not drawn) [Example 5] | 100 to 316 | 126 | 7.1 | 31.6 to 100 | 1 | F (F means a ratio of between 1 and 5) | – |
| C[C@@]1(O)C(=O)Nc2nccc(-c3nn(C4CCNCC4)c4c(OC(F)F)cccc34)c21 (single isomer, unassigned) [Example 43] | 316 to 1000 | 316 | – | 3.16 to 10 | 11 | D (D means a ratio of between 10 and 20) | 7.94 |
| CC[C@@]1(C)C(=O)Nc2nccc(-c3nn([C@@H]4CCNC[C@@H]4F)c4ccccc34)c21 (single isomer, unassigned) [Example 105] | 316 to 1000 | 398 | – | 10 to 31.6 | 33 | B (B means a ratio of between 30 and 50) | 12.6 |
| CC1(C)C(=O)Nc2nccc(-c3nn(C4(CC#N)CCC4)c4ccccc34)c21 [Example 22] | 316 to 1000 | 316 | 8.0 | 3.16 to 10 | 15 | D (D means a ratio of between 10 and 20) | – |
| CC1(C)C(=O)Nc2nccc(-c3nn(C[C@]4(C)COCCN4)c4ccccc34)c21 [Example 109] | 316 to 1000 | 501 | 7.7 | 10 to 31.6 | 11 | D (D means a ratio of between 10 and 20) | – |
| CC1(C)C(=O)Nc2nccc(-c3nn(C4(CC#N)CNC4)c4ccccc34)c21 [Example 46] | 100 to 316 | 158 | 8.2 | 3.16 to 10 | 3 | F (F means a ratio of between 1 and 5) | – |
| CC[C@@]1(C)C(=O)Nc2nccc(-c3nn([C@H]4CCNC4)c4ccccc34)c21 (single isomer, unassigned) [Example 66] | 31.6 to 100 | 100 | – | 3.16 to 10 | 21 | C (C means a ratio of between 20 and 30) | 3.98 |
| CC1(O)C(=O)Nc2nccc(-c3cn([C@@H]4CCNC4)c4ccccc34)c21 (stereo partly drawn) [Example 111] | 316 to 1000 | 398 | 8.0 | 10 to 31.6 | 7 | E (E means a ratio of between 5 and 10) | – |
| CC1(C)C(=O)Nc2nccc(-c3nn([C@H]4CCNC4)c4cc(F)ccc34)c21 [Example 70] | 100 to 316 | 126 | 8.1 | 3.16 to 10 | 20 | C (C means a ratio of between 20 and 30) | – |
| CC1(C)C(=O)Nc2nccc(-c3nn(C4(CO)CCNC4)c4ccccc34)c21 (stereo not drawn) [Example 23] | 10 to 31.6 | 31.6 | 9.3 | ≤ 1 | 11 | D (D means a ratio of between 10 and 20) | – |
| CC1(C)C(=O)Nc2nccc(-c3nn(C4CCNCC4)c4c(F)cccc34)c21 [Example 32] | 100 to 316 | 100 | 8.1 | 3.16 to 10 | 13 | D (D means a ratio of between 10 and 20) | – |
| CC[C@@]1(O)C(=O)Nc2nccc(-c3nn([C@@H]4CCNC[C@@H]4F)c4ccccc34)c21 (single isomer, unassigned) [Example 83] | 31.6 to 100 | 63.1 | – | 1 to 3.16 | 13 | D (D means a ratio of between 10 and 20) | 1.58 |
| CC1(O)C(=O)Nc2nccc(-c3nn(C4(CC#N)CCC4)c4ccccc34)c21 (stereo not drawn) [Example 25, 2-[1-[3-(3-hydroxy-3-methyl-2-oxo-1H-pyrrolo[2,3-b]pyridin-4-yl)indazol-1-yl]cyclobutyl]acetonitrile] | 10 to 31.6 | 20 | 9.3 | ≤ 1 | 6 | E (E means a ratio of between 5 and 10) | – |
